The values below come from patent EP0577932A2, “Development of a mechanism-based screen to identify androgen receptor agonists and antagonists” (AMERICAN CYANAMID COMPANY, priority 1992, dated 1994).

The structures appear in SMILES notation.

The target of this assay is T1, mouse androgen receptor (Mus musculus, UniProt P19091).
T1 sequence (P19091 1-899): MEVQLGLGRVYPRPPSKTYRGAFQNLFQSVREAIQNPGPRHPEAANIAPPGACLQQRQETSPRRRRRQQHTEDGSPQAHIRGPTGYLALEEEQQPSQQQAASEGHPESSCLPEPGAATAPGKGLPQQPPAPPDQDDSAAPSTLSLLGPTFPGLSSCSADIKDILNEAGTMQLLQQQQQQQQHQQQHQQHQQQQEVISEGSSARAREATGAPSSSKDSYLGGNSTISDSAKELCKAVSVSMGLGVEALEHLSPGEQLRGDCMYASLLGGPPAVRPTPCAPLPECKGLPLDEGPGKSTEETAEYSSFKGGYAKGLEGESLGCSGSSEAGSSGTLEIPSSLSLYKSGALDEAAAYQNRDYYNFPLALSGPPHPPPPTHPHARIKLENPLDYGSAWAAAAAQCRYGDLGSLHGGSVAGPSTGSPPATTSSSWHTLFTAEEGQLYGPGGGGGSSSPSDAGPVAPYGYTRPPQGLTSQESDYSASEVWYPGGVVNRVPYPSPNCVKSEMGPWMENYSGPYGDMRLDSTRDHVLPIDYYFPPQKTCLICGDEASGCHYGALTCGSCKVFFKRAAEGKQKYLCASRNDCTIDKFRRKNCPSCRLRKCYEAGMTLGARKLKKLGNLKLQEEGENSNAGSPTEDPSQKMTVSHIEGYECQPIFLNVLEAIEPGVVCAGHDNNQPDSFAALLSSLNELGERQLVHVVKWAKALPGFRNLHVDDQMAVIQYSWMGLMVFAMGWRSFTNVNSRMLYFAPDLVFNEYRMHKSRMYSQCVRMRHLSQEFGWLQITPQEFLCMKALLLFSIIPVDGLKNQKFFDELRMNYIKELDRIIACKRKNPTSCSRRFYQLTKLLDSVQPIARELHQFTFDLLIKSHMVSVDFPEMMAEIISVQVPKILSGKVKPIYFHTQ
Particulars: compete for binding sites only at high concentrations.

Description: Bound and free steroids are separated by dextran-coated charcoal (0.5% Norit A and 0.05% dextran). Specific binding is determined by subtracting non-specific from total binding.

For the compound `CC(C)(O)C(=O)Nc1ccc([N+](=O)[O-])c(C(F)(F)F)c1` [hyroxyl-flutamide], the “affinity for the androgen receptor (in words)” value was “lower affinity”.
